Source: patent publication US20250186489A1, “REPROGRAMMING OF CELLS TO TYPE 1 CONVENTIONAL DENDRITIC CELLS OR ANTIGEN-PRESENTING CELLS” (Asgard Therapeutics AB, priority 2021, published 2025)

Legend:
[1] = tested on: LLC and B16 cells; assay: Effect of valproic acid on reprogramming of mouse cancer cells; format: cell-based; conditions: for fold enhancement of CD45^+ MHC-II^+ tumour-APC generation: SFFV-PIB-eGFP; for fold enhancement of CD45^+ MHC-II^+ tumour-APC generation / CD45^+ MHC-II^+ tumour-APCs: day 9
Description: (§1) Cancer cell lines were transduced with PIB-IRES-EGFP lentiviral particles or EGFP as control, and cultured in the presence or absence of VPA from reprogramming day 1 to day 4, and reprogramming efficiency was quantified by flow cytometry at reprogramming day 9 in live EGFP^+ cells according to the surface expression of CD45^+ and MHC-II or HLA-DR. Reprogrammed cells were then analysed as previously described.

[2] = tested on: human cancer cell lines; assay: Effect of valproic acid on cDC1 reprogramming of human cancer cell lines; format: cell-based; conditions: VPA from day 1 to day 4, day 9
Description: as §1

[3] = tested on: human embryonic fibroblasts (HEF); assay: cDC1 reprogramming efficiency of human embryonic fibroblasts, flow cytometry for CD45+HLA-DR+ cells at day 9; format: cell-based; conditions: HEF with Dox-inducible PIB
Description: HEFs, HDFs and Clec9a-tdTomato MEFs were seeded at a density of 40,000 cells per well and MSCs at a density of 50,000 cells per well on 0.1% gelatin coated 6-well plates. On the following day, cells were incubated overnight with either a ratio of 1:1 TetO-PIB and M2rtTA, SFFV-PIB-GFP or SFFV-GFP lentiviral particles in media supplemented with 8 μg/ml polybrene. Cells were transduced overnight twice in consecutive days and media replaced in between. After the second transduction, media was replaced by normal growth media (day 0). When using TetO-PIB, media was supplemented with Dox (1 μg/ml). Media was changed every 2-3 days for the duration of cultures. When stated, media was supplemented with LPS (100 ng/ml, Enzo), Poly I:C (25 μg/ml, InvivoGen) and R848 (3 μg/ml, InvivoGen) overnight. Cytokines were added at day 2 and kept for the duration of cultures; For reprogramming in xeno-free conditions, MSCs were cultured in X-Vivo 15 (Lonza) after transduction and media changed every 2-3 days for the duration of cultures.
For the analysis of surface marker expression, human and mouse cells were dissociated and incubated with antibodies diluted in PBS 5% FBS at 4° C. for 30 minutes in the presence of mouse or rat serum (1/100, GeneTex), for human and mouse cells respectively, to block unspecific binding. Cells were washed and resuspended in PBS 5% FBS and analyzed in BD FACSCanto II or BD LSRFortessa flow cytometers (BD Biosciences), unless stated otherwise. DAPI was used for dead cell exclusion. Flow cytometry data were analyzed using FlowJo software (FLOWJO, LLC, version 10.6.1). All flow cytometry analyses were performed in live single cell gates.
Coding regions of ID2, TXNIP, ZFP36, PLEK, SUB1, JUNB, CREM, KLF4, MXD1, LITAF, IRF7, FOS, NMI, TFEC, SP110, IRF5, STAT2, BATF, ZNF267, IRF1, RELB and BATF2 were individually cloned in the pFUW-TetO plasmid. […] Reprogramming efficiency was evaluated by flow cytometry in HEFs 9 days after transcription factor overexpression.
17 human hematopoietic cytokines including inflammatory mediators (Table 3) were individually added to the culture media 2 days after PIB induction in HEFs, and reprogramming efficiency was measured at day 9. Changes in reprogramming efficiency were analysed using both single cytokines and combinations of two or three cytokines.
The impact on reprogramming efficiency after a combination of cytokine treatment and SFFV-driven PIB induction was evaluated. The scPred system was used for integration with “natural” DCs. See previous Examples for experimental details.

[4] = tested on: B16-OVA cells; assay: T cell killing assay of B16-OVA target cells; format: cell-based, mouse; conditions: low (1:1) T cell to target ratio, 3 days co-culture
Description: CD8^+ T cells from spleen of OT-I mice were enriched using a mouse CD8^+ T cell isolation kit (Miltenyi) according to manufacturer's protocol. 6-well untreated plates were coated with anti-CD3 and anti-CD28 at 2×10^−3 mg mL^−1 for 2 h at 37° C. and washed 3× before 1×10^6 T cells per mL were seeded in complete growth media (RPMI) supplemented with murine IL-2 (Peprotech, 100 U mL-1) and murine IL-12p70 (Peprotech, 2.5×10−3 mg mL-1). After 24 h of activation, T cells were re-seeded at 1×10^6 cells per mL in fresh complete RPMI supplemented with murine IL-2 for 48 h on new untreated plates to allow T cell expansion. MACS-sorted reprogrammed mOrange^+ B16-OVA cells or IFN-γ treated cells were seeded with non-fluorescent B16-OVA (mOrange−) in equal numbers, 24 h before co-culture with T cells. Expanded T cells were added in ratios of 0:1, 1:1, 5:1, 10:1 T cell to target cell. […] For flow cytometry analysis, cells were resuspended and stained for viability (DAPI) and anti-CD3 and measured at indicated time points post co-culture with T cells.

[5] = tested on: Clec9a-tdTomato mouse embryonic fibroblasts (MEFs); assay: Replacement of PU.1 by homologs in cDC1 reprogramming of Clec9a-tdTomato MEFs; format: cell-based; conditions: for tdTomato^+ cells (Clec9a reporter activation): factor in combination with IRF8 and BATF3
Description: Coding regions of SPIB and SPIC were individually cloned in the pFUW-TetO plasmid. Lentiviral particles encoding each individual transcription factor or the reverse tetracycline transactivator M2rtTA under the control of constitutively active human ubiquitin C promoter (pFUW-UbC-M2rtTA) were used for co-transduction (Rosa et al. 2018). Reprogramming efficiency was evaluated by flow cytometry in Clec9a-tdTomato mouse embryonic fibroblasts (MEFs) 9 days after transcription factor overexpression.

[6] = tested on: chromatin; assay: ChIP-seq of PU.1, IRF8 and BATF3 in HDFs 48 h after induction; format: binding, human; conditions: for chromatin binding, number of peaks: factors co-expressed, HDFs, 48 h; for positions shared between the three factors as share of total peaks of the factor: factors expressed together
Description: TFs were delivered with a polycistronic lentiviral vector (pFUW-tetO-PIB) or individual vectors (pFUW-tetO-PU.1, pFUW-tetO-IRF8, or pFUW-tetO-BATF3) with pFUW-M2rtTA. ChIP was performed 48 hours after the addition of Dox.
Chromatin in cultured cells was fixed by adding 1/10 volume of freshly-prepared formaldehyde solution [11% Formaldehyde (Sigma), 0.1M NaCl, 1 mM EDTA and 50 mM HEPES] to each cell suspension in complete DMEM. Tubes were left 15 minutes at room temperature with agitation. Fixation was stopped by adding 1/20 volume of […] Glycine solution (Sigma). After 5 minutes incubation, cells were centrifuged at 800 g for 10 min at 4° C. Cell pellets were resuspended in 10 ml chilled PBS-Igepal, 100 μl PMSF were added to each tube and centrifuged at 800 g for 10 minutes at 4° C. Cell pellets were snap-frozen on dry ice and stored at −80° C. Active Motif (Carlsbad, CA) prepared chromatin, performed ChIP, generated libraries and sequenced libraries. Briefly, chromatin was isolated by adding lysis buffer, followed by disruption with a Dounce homogenizer. Lysates were sonicated and the DNA sheared to an average length of 300-500 bp (Active Motif's EpiShear probe sonicator). Genomic DNA (Input) was prepared by treating aliquots of chromatin with RNase, proteinase K and heat for de-crosslinking, followed by clean up using solid phase reversible immobilization (SPRI) beads (Beckman Coulter) and quantitation by Clariostar (BMG Labtech). Extrapolation to the original chromatin volume allowed determination of total chromatin yield. 30 μg of chromatin was pre-cleared with protein A/G agarose beads (Invitrogen). Immunoprecipitations were performed with 4 μg of antibodies against human PU.1, IRF8 and BATF3 (rabbit anti-human PU.1, rabbit anti-human IRF8 or sheep anti-human BATF3). […] To confirm ChIP enrichment, quantitative PCR (QPCR) reactions were carried out in triplicate on specific genomic regions using SYBR Green Supermix (Bio-Rad). […] After a final PCR amplification step, the resulting DNA libraries were quantified and sequenced on Illumina's NextSeq 500 (75 nt reads, single end).
ChIP-seq analysis was performed on the raw FASTQ files. […] For genome tracks, bigwig files were created from bam files with deeptools (https://deeptools.readthedocs.io/en/develop/) and explored using the UCSC Genome Browser. For Chromatin State Fold-Enrichment analysis, enrichment scores for genomic features, such as PU.1, IRF8 and BATF3 ChIP-seq peaks and histone marks were calculated using ChromHMM Overlap Enrichment (http://compbio.mit.edu/ChromHMM/). […] Enrichment scores were calculated as the ratio between the observed and the expected overlap for each feature and chromatin state based on their sizes and the size of the human genome. […]

CCCC(CCC)C(=O)O [VPA, valproic acid]
fold enhancement of CD45^+ MHC-II^+ tumour-APC generation ([1]; B16 cells): ~5 fold | CD45^+ MHC-II^+ tumour-APCs ([1]; B16 cells, 5.9±4.8% without VPA): 29.9±19.3% | MHC-I in transduced cells ([1]; LLC and B16 cells transduced with PIB): upregulate MHC-I | fold enhancement of CD45^+ MHC-II^+ tumour-APC generation ([1]; LLC cells): ~3 fold | CD45^+ MHC-II^+ tumour-APCs ([1]; LLC cells, 15.8±4.79% without VPA): 45.9±25.5% | antigen presentation function of tumour-APCs generated in the presence of VPA ([1]; LLC-OVA and B16-OVA cells, OT-I CD8^+ T cells): presented endogenous antigens to OT-I CD8^+ T cells | reprogramming efficiency in human cancer cells [2]: increased reprogramming efficiency in all tested lines

IFN-γ: cytokine
fold increase in reprogramming efficiency versus condition without cytokines [3]: 20 fold | CD45^+ HLA-DR^+ cell generation (hiDCs) ([3]; cytokine added 2 days after induction, 0.4%±0.2% without cytokines): 7.9%±2.2% | target cells killed by T cells [4]: 12.31±7.1%

SPIB: ETS-domain transcription factor, PU.1 homolog, SEQ ID NO: 23
reporter activation by the factor alone [5]: not able to activate the DC-specific reporter | tdTomato^+ cells (Clec9a reporter activation) [5]: about 8.14±1.16% | tdTomato^+ cells co-expressing CD45 and MHC-II ([5]; factor in combination with IRF8 and BATF3, gated in tdTomato^+): 33.63±3.76% | ability to replace PU.1 in cDC1 reprogramming ([5]; with IRF8 and BATF3): could replace PU.1 | fold increase in tdTomato^+ cells co-expressing CD45 and MHC-II in comparison to PU.1 ([5]; with IRF8 and BATF3): 2 fold

SPIC: ETS-domain transcription factor, PU.1 homolog, SEQ ID NO: 25
reporter activation by the factor alone [5]: not able to activate the DC-specific reporter | tdTomato^+ cells (Clec9a reporter activation) [5]: 1.46±0.73% | ability to replace PU.1 in cDC1 reprogramming ([5]; with IRF8 and BATF3): could replace PU.1

B1: IRF8: transcription factor of the interferon regulatory factor family, SEQ ID NO: 11 (protein, listed as Homo sapiens)
chain: MCDRNGGRRLRQWLIEQIDSSMYPGLIWENEEKSMFRIPWKHAGKQDYNQEVDASIFKAWAVFKGKFKEGDKAEPATWKTRLRCALNKSPDFEEVTDRSQLDISEPYKVYRIVPEEEQKCKLGVATAGCVNEVTEMECGRSEIDELIKEPSVDDYMGMIKRSPSPPEACRSQLLPDWWAQQPSTGVPLVTGYTTYDAHHSAFSQMVISFYYGGKLVGQATTTCPEGCRLSLSQPGLPGTKLYGPEGLELVRFPPADAIPSERQRQVTRKLFGHLERGVLLHSSRQGVFVKRLCQGRVFCSGNAVVCKGRPNKLERDEVVVFDTSQFFRELQQFYNSQGRLPDGRVVLCFGEEFPDMAPLRSKLILVQIEQLYVRQLAEEAGKSCGAGSVMQAPEEPPPDQVFRMFPDICASHQRSFFRENQQITV
modifications: Human IRF8 isoform 1 (protein sequence)
chromatin binding, number of peaks [6]: 18,962 peaks | positions shared between the three factors as share of total peaks of the factor [6]: 28%

B2: BATF3: nuclear basic leucine zipper transcription factor, SEQ ID NO: 10 (protein, listed as Homo sapiens)
chain: MSQGLPAAGSVLQRSVAAPGNQPQPQPQQQSPEDDDRKVRRREKNRVAAQRSRKQTQKADKLHEEYESLEQENTMLRREIGKLTEELKHLTEALKEHEKMCPLLLCPMNFVPVPPRPDPVAGCLPR
modifications: Human BATF3 (protein sequence)
chromatin binding, number of peaks [6]: 11,505 peaks | positions shared between the three factors as share of total peaks of the factor [6]: 47%
